In patent US20220071925A1, “MEDICINAL COMPOSITION FOR PREVENTING OR TREATING BONE DISEASES” (GEXVAL INC., priority 2019, published 2022):

What was measured:
GPR40 = GPR40 (Homo sapiens, UniProt O14842); details: cited from earlier work
R264.7 cells = assay: Combined effect of compounds on LPS-stimulated mouse macrophage-derived cells, gene expression by RNA sequencing (Test Example 2); type: cell-based; details: LPS 100 ng/mL 24 h, free fatty acid (stearic acid) 10 μM, Fasiglifam 10 μM, alone or in combination
Experimental: The combined effect of the compounds on the change when macrophage cells were stimulated by lipopolysaccharide (LPS) derived from bacteria was examined by integrated gene expression analysis using RNA next-generation sequencing. […].7 cells purchased from KAC Co., Ltd. were used in the test. The cells were suspended in DMEM with 10% serum, seeded in a 24-well plate at a concentration of 1.6×10^5 cells/well, and cultured at 37° C. under a 5% CO2 condition. 30 minutes prior to addition of LPS, a free fatty acid at 10 μM and Fasiglifam at 10 μM were added alone or in combination. Stearic acid was used as the free fatty acid. After culturing for 30 minutes after addition of the compound, LPS was added to each well at a concentration of 100 ng/mL. PBS of the same amount as LPS was added to a non-stimulated control group. After culturing for 24 hours with the addition of LPS, the medium was removed, and total RNA was extracted using RNeasy (QIAGEN). mRNA was recovered from the total RNA to prepare a library, and RNA sequencing (Illumina Hiseq) was performed. Samples from the following five groups were sequenced, and the expression level of each gene was estimated from the obtained read count data. […] Further, these expression-fluctuated genes were subjected to a pathway analysis to examine their association with the disease.

osteoclasts [1] = details: caused by interaction of osteoclasts (RANK) with osteoblasts (RANKL); cited from earlier work
osteoclasts [2] = details: action of GW9508 on GPR40; cited from earlier work
[3] = in vivo; cited from earlier work

Sequence of GPR40 (O14842 whole entry, species assumed): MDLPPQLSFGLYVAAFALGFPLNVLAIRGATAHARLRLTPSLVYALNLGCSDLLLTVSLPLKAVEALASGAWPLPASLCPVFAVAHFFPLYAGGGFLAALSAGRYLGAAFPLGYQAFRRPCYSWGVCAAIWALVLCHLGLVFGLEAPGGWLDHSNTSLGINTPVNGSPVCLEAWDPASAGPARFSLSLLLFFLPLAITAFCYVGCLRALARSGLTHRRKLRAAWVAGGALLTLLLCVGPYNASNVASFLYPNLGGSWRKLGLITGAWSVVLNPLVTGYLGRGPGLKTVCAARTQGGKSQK

SMILES: Cc1cc(OCCCS(C)(=O)=O)cc(C)c1-c1cccc(COc2ccc3c(c2)OC[C@H]3CC(=O)O)c1 [Fasiglifam, [(3S)-6-({2′,6′-dimethyl-4′-[3-(methylsulfonyl)propoxy]biphenyl-3-yl}methoxy)-2,3-dihydro-1-benzofuran-3-yl]acetic acid]
- agonist selectivity GPR40 versus GPR120 (GPR40): selective agonist for GPR40
- AAAS expression level (R264.7 cells): 0
- BCL2L1 expression level (R264.7 cells): 0
- C3AR1 expression level (R264.7 cells): 0
- CCL2 expression level (R264.7 cells): 0
- CCL3 expression level (R264.7 cells): 0
- CCL4 expression level (R264.7 cells): 0
- CD36 expression level (R264.7 cells): 0
- CSF1R expression level (R264.7 cells): 0
- CSF3 expression level (R264.7 cells): 0
- DUSP5 expression level (R264.7 cells): 0
- EIF4B expression level (R264.7 cells): 0
- EIF4G2 expression level (R264.7 cells): 0
- GBP7 expression level (R264.7 cells): 0
- GRIN1 expression level (R264.7 cells): 0
- IL7R expression level (R264.7 cells): 0
- IP6K2 expression level (R264.7 cells): 0
- LYN expression level (R264.7 cells): 0
- NF1 expression level (R264.7 cells): 0
- NOS2 expression level (R264.7 cells): 0
- PIK3CD expression level (R264.7 cells): 0
- PIM1 expression level (R264.7 cells): 0
- PIP5K1C expression level (R264.7 cells): 0
- PLAUR expression level (R264.7 cells): 0
- PLEKHO2 expression level (R264.7 cells): 0
- PPP2CA expression level (R264.7 cells): 0
- PSMA6 expression level (R264.7 cells): 0
- PSMA7 expression level (R264.7 cells): 0
- PSMC2 expression level (R264.7 cells): 0
- PSMD13 expression level (R264.7 cells): 0
- PYGB expression level (R264.7 cells): 0
- RASGRP3 expression level (R264.7 cells): 0
- SDCBP expression level (R264.7 cells): 0
- SMPD1 expression level (R264.7 cells): 0
- SUMO1 expression level (R264.7 cells): 0
- TNF expression level (R264.7 cells): 0
- TNFRSF1B expression level (R264.7 cells): 0
- TNFSF8 expression level (R264.7 cells): 0
- TNRC6B expression level (R264.7 cells): 0

SMILES: CCCCCCCCCCCCCCCCCC(=O)O [Fatty acid, Stearic acid]
- AAAS expression level (R264.7 cells): 0
- BCL2L1 expression level (R264.7 cells): 0
- C3AR1 expression level (R264.7 cells): 0
- CCL2 expression level (R264.7 cells): 0
- CCL3 expression level (R264.7 cells): 0
- CCL4 expression level (R264.7 cells): 0
- CD36 expression level (R264.7 cells): 0
- CSF1R expression level (R264.7 cells): 0
- CSF3 expression level (R264.7 cells): 0
- DUSP5 expression level (R264.7 cells): 0
- EIF4B expression level (R264.7 cells): 0
- EIF4G2 expression level (R264.7 cells): 0
- GBP7 expression level (R264.7 cells): 0
- GRIN1 expression level (R264.7 cells): 0
- IL7R expression level (R264.7 cells): 0
- IP6K2 expression level (R264.7 cells): 0
- LYN expression level (R264.7 cells): 0
- NF1 expression level (R264.7 cells): 0
- NOS2 expression level (R264.7 cells): 0
- PIK3CD expression level (R264.7 cells): 0
- PIM1 expression level (R264.7 cells): 0
- PIP5K1C expression level (R264.7 cells): 0
- PLAUR expression level (R264.7 cells): 0
- PLEKHO2 expression level (R264.7 cells): 0
- PPP2CA expression level (R264.7 cells): 0
- PSMA6 expression level (R264.7 cells): 0
- PSMA7 expression level (R264.7 cells): 0
- PSMC2 expression level (R264.7 cells): 0
- PSMD13 expression level (R264.7 cells): 0
- PYGB expression level (R264.7 cells): 0
- RASGRP3 expression level (R264.7 cells): 0
- SDCBP expression level (R264.7 cells): 0
- SMPD1 expression level (R264.7 cells): 0
- SUMO1 expression level (R264.7 cells): 0
- TNF expression level (R264.7 cells): 0
- TNFRSF1B expression level (R264.7 cells): 0
- TNFSF8 expression level (R264.7 cells): 0
- TNRC6B expression level (R264.7 cells): 0

SMILES: O=C(O)CCc1ccc(NCc2cccc(Oc3ccccc3)c2)cc1 [GW9508]
- formation of osteoclasts (differentiation and maturation into osteoclasts) (osteoclasts [1]): suppressing the formation of osteoclasts
- differentiation into osteoclasts (osteoclasts [2]): the differentiation into osteoclasts is suppressed
- agonist selectivity GPR40 versus GPR120 (GPR40): dual agonist for GPR40 and GPR120
- bone loss due to ovariectomy [3]: bone loss due to ovariectomy can be prevented
